Patent US9738591B2, “Antimicrobial compounds” (priority 2009, dated 2017)

Assays:
Assay in all cases: Disk diffusion
[1] = system: Shigella flexneri NCTC 8192; format: cell-based; conditions: S. flexneri NCTC 8192
Method: Plates were incubated at 35° C.

[2] = system: Aeromonas hydrophila NCTC 8049/ATCC 7966; conditions: A. hydrophila NCTC 8049; note: test concentration or dose not given here
[3] = system: Citrobacter freundii NCTC 9750/ATCC 8090; conditions: C. freundii NCTC 9750
[4] = system: Escherichia coli NCTC 10538; conditions: E. coli NCTC 10538
[5] = system: Moraxella catarrhalis NCTC 3625; conditions: M. catarrhalis NCTC 3625
[6] = system: Proteus mirabilis NCTC 10975; conditions: P. mirabilis NCTC 10975
[7] = system: Pseudomonas aeruginosa NCTC 10662; conditions: P. aeruginosa NCTC 10662
[8] = system: Salmonella enterica subsp. enterica serovar Typhimurium ATCC 13311; conditions: S. typhimurium ATCC 13311
[9] = system: Stenotrophomonas maltophilia ATCC 13637; conditions: S. maltophilia ATCC 13637
[10] = system: Yersinia enterocolitica clinical 26609; conditions: Y. enterocolitica clinical 26609
[11] = system: Bacillus cereus ATCC 13061; conditions: B. cereus ATCC 13061
[12] = system: Bacillus subtilis ATCC 6633; conditions: B. subtilis ATCC 6633
[13] = system: Enterococcus faecalis NCTC 775; conditions: E. faecalis NCTC 775; note: test concentration or dose not given here
[14] = system: Listeria monocytogenes NCTC 7973; conditions: L. monocytogenes NCTC 7973; note: test concentration or dose not given here
[15] = system: Micrococcus luteus ATCC 10240; conditions: M. luteus ATCC 10240
[16] = system: Staphylococcus aureus NCTC 6571/ATCC 9144; conditions: S. aureus NCTC 6571
[17] = system: Staphylococcus aureus (methicillin resistant) NCTC 10442; conditions: S. aureus NCTC 10442
[18] = system: Staphylococcus epidermidis ATCC 12228; conditions: S. epidermidis ATCC 1228
[19] = system: Staphylococcus xylosus ATCC 29971; conditions: S. xylosus ATCC 29971
[20] = system: Streptococcus pneumoniae ATCC 49619; conditions: S. pneumoniae ATCC 49619; note: test concentration or dose not given here
[21] = system: Streptococcus pyogenes NCTC 8191; conditions: S. pyogenes NCTC 8191
E. coli NCTC 10418 = conditions: E. coli NCTC 10418
[22] = system: A. calcoaceticus ATCC 15308
K. pneumoniae NCTC 10896 = system: K. pneumoniae NCTC 10896
[23] = system: V. cholerae non-01 clinical
C. albicans ATCC 90028 = system: C. albicans ATCC 90028

SMILES: O=C(O)c1ccc(/C=C/c2ccc(/C=C/c3ccc(C(=O)O)cc3)c(/C=C/c3ccc(C(=O)O)cc3)c2)cc1 [TSB067]
- Zone of Inhibition [1]: 0 mm
- Zone of Inhibition [2]: 7 mm
- Zone of Inhibition [3]: 0 mm
- Zone of Inhibition [4]: 7.5 mm
- Zone of Inhibition [5]: 32 mm
- Zone of Inhibition [6]: 0 mm
- Zone of Inhibition [7]: 0 mm
- Zone of Inhibition [8]: 0 mm
- Zone of Inhibition [9]: 0 mm
- Zone of Inhibition [10]: 0 mm
- Zone of Inhibition [11]: 0 mm
- Zone of Inhibition [12]: 0 mm
- Zone of Inhibition [13]: 0 mm
- Zone of Inhibition [14]: 12 mm
- Zone of Inhibition [15]: 20 mm
- Zone of Inhibition [16]: 14 mm
- Zone of Inhibition [17]: 12 mm
- Zone of Inhibition [18]: 11 mm
- Zone of Inhibition [19]: 0 mm
- Zone of Inhibition [20]: 16 mm
- Zone of Inhibition [21]: 14 mm
- Zone of Inhibition (E. coli NCTC 10418): 6.5 mm
- Zone of Inhibition [22]: 0 mm
- Zone of Inhibition (K. pneumoniae NCTC 10896): 0 mm
- Zone of Inhibition [23]: 0 mm
- Zone of Inhibition (C. albicans ATCC 90028): 0 mm
